Experimental data: the supplement of paper PMC11208160

Assay: recombinant barcode read abundance after kanamycin selection (control-corrected) (log10(CPM+1)); higher = more efficient recombination; sequences stand for … in AGTGCAGAGAAAATCGGCCAGTTTTCTCTGCCTGCAGTCCGCATGCCGT…AGATTTATGCAGCGGACTGCCTTTCTCCCAAAGTGATAAACCGGACAGTATCATGGACCGGTTTTCCCGGTAATCCGTATTTGCAAGGTTGGTTTCACT; site = the 11-nt target
Experimental: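 Pooled E. coli target-specificity screen for the IS621 bridge recombinase. Each library plasmid pairs an 11-nt target (CT core) with a bridge RNA whose target-binding loop (9-nt LTG + 4-nt RTG) is reprogrammed; the rest of the 177-nt WT IS621 bridge RNA scaffold is fixed. The plasmid is co-electroporated with a WT donor plasmid; recombinase is induced with 0.1 mM IPTG and recombinants are selected on kanamycin. Recombinant barcodes are sequenced, converted to CPM, averaged over two biological replicates and corrected by the unselected control CPM. Molecule = full bridge RNA written as DNA: LTG = specificity nt 1-9, RTG = reverse complement of specificity nt 8-11, in the WT scaffold.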
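Further: IS621 recombinase and bridge RNA in Escherichia coli cells.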

| Sequence | recombinant barcode read abundance (log10) |
| --- | --- |
| ACGACTTCTTGGGTTCTAACCTGTTGCCT (site ACGACTGCTAG) | 0 |
| ACGACTTCTTGGGTTCTAACCTGTTGCCT (site ACGACTTCTAG) | 0.731 |
| ACGAGTCCTTGGGTTCTAACCTGTTGCTT (site ACGAATCCTAA) | 0.365 |
| ACGAGTCCTTGGGTTCTAACCTGTTGCTT (site ACGACTCCTAA) | 0.161 |
| ACGAGTCCTTGGGTTCTAACCTGTTGCTT (site ACGAGTCCTAA) | 0.606 |
| ACGAGTCCTTGGGTTCTAACCTGTTGCTT (site ACGATTCCTAA) | 0.0892 |
| ACGCCTCCTTGGGTTCTAACCTGTTGCTG (site ACGACTCCTCA) | 0.0447 |
| ACGCCTCCTTGGGTTCTAACCTGTTGCTG (site ACGCCTCCTCA) | 0.384 |
| ACGCCTCCTTGGGTTCTAACCTGTTGCTG (site ACGGCTCCTCA) | 0.269 |
| ACGCCTCCTTGGGTTCTAACCTGTTGCTG (site ACGTCTCCTCA) | 0.175 |
| ACGCGGCCTTGGGTTCTAACCTGTTGCCT (site ACGCGGCCTAG) | 0.103 |
| ACGCGGCCTTGGGTTCTAACCTGTTGCCT (site CCGCGGCCTAG) | 0.42 |
| ACGCGGCCTTGGGTTCTAACCTGTTGCCT (site GCGCGGCCTAG) | 0.147 |
| ACGCGGCCTTGGGTTCTAACCTGTTGCCT (site TCGCGGCCTAG) | 0.108 |
| ACGCGTGCTTGGGTTCTAACCTGTTGCGG (site ACGCGTGCTCC) | 0.727 |
| ACGCGTGCTTGGGTTCTAACCTGTTGCGG (site CTAGTAACTTG) | 0.019 |
| ACGGAATCTTGGGTTCTAACCTGTTGCCG (site ACGGAATCTCG) | 0.46 |
| ACGGAATCTTGGGTTCTAACCTGTTGCCG (site TAAATCCCTTC) | 0.245 |
| ACGGAGTCTTGGGTTCTAACCTGTTGCTA (site ACGGAGTCTTA) | 1.3 |
| ACGGAGTCTTGGGTTCTAACCTGTTGCTA (site TACAGACCTCT) | 0.0854 |
| ACGGCTACTTGGGTTCTAACCTGTTGCTT (site ACGGCTACTAA) | 0.83 |

| Sequence | recombinant barcode read abundance (log10) |
| --- | --- |
| ACGGCTACTTGGGTTCTAACCTGTTGCTT (site GGTTAGTCTCG) | 0.0618 |
| ACGGCTTCTTGGGTTCTAACCTGTTGCTA (site ACGGCTTCTTA) | 0.494 |
| ACGGCTTCTTGGGTTCTAACCTGTTGCTA (site AGGGCTTCTTA) | 0.485 |
| ACGGGTGCTTGGGTTCTAACCTGTTGCCT (site ACGGGTGCTAG) | 1.86 |
| ACGGGTGCTTGGGTTCTAACCTGTTGCCT (site ACGGTTGCTAG) | 0.103 |
| ACGTCACCTTGGGTTCTAACCTGTTGCCT (site ACGTCACCTAG) | 0.536 |
| ACGTCACCTTGGGTTCTAACCTGTTGCCT (site CCGTCACCTAG) | 0.0656 |
| ACGTCACCTTGGGTTCTAACCTGTTGCCT (site GCGTCACCTAG) | 0.221 |
| ACGTCACCTTGGGTTCTAACCTGTTGCCT (site TCGTCACCTAG) | 0.17 |
| ACGTGGACTTGGGTTCTAACCTGTTGCTA (site ACGTGGACTTA) | 1.06 |
| ACGTGGACTTGGGTTCTAACCTGTTGCTA (site GACAATGCTAT) | 0.181 |
| ACTAAACCTTGGGTTCTAACCTGTTGCCT (site ACTAAACCTAG) | 0.866 |
| ACTAAACCTTGGGTTCTAACCTGTTGCCT (site GCTAACCCTAG) | 0.246 |
| ACTAATCCTTGGGTTCTAACCTGTTGCTT (site ACTAATCCTAA) | 0.236 |
| ACTAATCCTTGGGTTCTAACCTGTTGCTT (site CCTAATACTAA) | 0.105 |
| ACTAGGACTTGGGTTCTAACCTGTTGCGA (site ACTAGGACTAC) | 0.0787 |
| ACTAGGACTTGGGTTCTAACCTGTTGCGA (site ACTAGGACTCC) | 1.43 |
| ACTAGGACTTGGGTTCTAACCTGTTGCGA (site ACTAGGACTGC) | 0.0331 |
| ACTAGGACTTGGGTTCTAACCTGTTGCGA (site ACTAGGACTTC) | 2.27 |
| ACTAGGTCTTGGGTTCTAACCTGTTGCTA (site ACTAGCTCTTA) | 0.0718 |
| ACTAGGTCTTGGGTTCTAACCTGTTGCTA (site ACTAGGTCTTA) | 1.04 |

| Sequence | recombinant barcode read abundance (log10) |
| --- | --- |
| ACTAGTCCTTGGGTTCTAACCTGTTGCCT (site ACTAGTCCTAA) | 0.233 |
| ACTAGTCCTTGGGTTCTAACCTGTTGCCT (site ACTAGTCCTAC) | 0.649 |
| ACTAGTCCTTGGGTTCTAACCTGTTGCCT (site ACTAGTCCTAG) | 0.337 |
| ACTAGTCCTTGGGTTCTAACCTGTTGCCT (site ACTAGTCCTAT) | 0.0393 |
| ACTAGTGCTTGGGTTCTAACCTGTTGCCT (site AATAGTGCTAG) | 0.111 |
| ACTAGTGCTTGGGTTCTAACCTGTTGCCT (site ACTAGTGCTAG) | 0.117 |
| ACTAGTGCTTGGGTTCTAACCTGTTGCCT (site AGTAGTGCTAG) | 0.0194 |
| ACTAGTGCTTGGGTTCTAACCTGTTGCCT (site ATTAGTGCTAG) | 0.0112 |
| ACTCACTCTTGGGTTCTAACCTGTTGCCT (site ACTCACTCTAG) | 2.04 |
| ACTCACTCTTGGGTTCTAACCTGTTGCCT (site CGATCTCCTGT) | 0.0794 |
| ACTCGGCCTTGGGTTCTAACCTGTTGCGA (site ACTCGGCCTTC) | 2.11 |
| ACTCGGCCTTGGGTTCTAACCTGTTGCGA (site ACTGGGCCTTC) | 0.172 |
| ACTCGGCCTTGGGTTCTAACCTGTTGCGT (site ACTCGGCCTAC) | 2.56 |
| ACTCGGCCTTGGGTTCTAACCTGTTGCGT (site ACTCGGCCTAG) | 0.0703 |
| ACTCTAACTTGGGTTCTAACCTGTTGCTT (site ACTATAACTAA) | 0.154 |
| ACTCTAACTTGGGTTCTAACCTGTTGCTT (site ACTCTAACTAA) | 0.121 |
| ACTCTAACTTGGGTTCTAACCTGTTGCTT (site ACTGTAACTAA) | 0.0269 |
| ACTCTAACTTGGGTTCTAACCTGTTGCTT (site ACTTTAACTAA) | 0.0201 |
| ACTGGTTCTTGGGTTCTAACCTGTTGCCG (site ACTGGTTCTCG) | 0.696 |
| ACTGGTTCTTGGGTTCTAACCTGTTGCCG (site TACTCACCTAA) | 0.0451 |
| ACTGTCACTTGGGTTCTAACCTGTTGCGG (site ACTGTCACTCC) | 3.28 |

| Sequence | recombinant barcode read abundance (log10) |
| --- | --- |
| ACTGTCACTTGGGTTCTAACCTGTTGCGG (site GTGTATTCTAG) | 0.046 |
| ACTTAGACTTGGGTTCTAACCTGTTGCCT (site ACTTAGACTAG) | 1.02 |
| ACTTAGACTTGGGTTCTAACCTGTTGCCT (site ACTTAGACTCG) | 0.313 |
| ACTTAGACTTGGGTTCTAACCTGTTGCCT (site ACTTAGACTGG) | 0.258 |
| ACTTAGACTTGGGTTCTAACCTGTTGCCT (site ACTTAGACTTG) | 0 |
| ACTTAGACTTGGGTTCTAACCTGTTGCGG (site ACTTAGACTCC) | 2.56 |
| ACTTAGACTTGGGTTCTAACCTGTTGCGG (site TCTTAGACTCC) | 0.416 |
| ACTTAGCCTTGGGTTCTAACCTGTTGCCT (site ACTTAGCCTAG) | 1.33 |
| ACTTAGCCTTGGGTTCTAACCTGTTGCCT (site ACTTAGCCTAT) | 0.0989 |
| ACTTCCACTTGGGTTCTAACCTGTTGCCT (site ACTTCCACTAG) | 0.613 |
| ACTTCCACTTGGGTTCTAACCTGTTGCCT (site CCTTCCACTAG) | 0.0483 |
| ACTTCCACTTGGGTTCTAACCTGTTGCCT (site GCTTCCACTAG) | 0.0573 |
| ACTTCCACTTGGGTTCTAACCTGTTGCCT (site TCTTCCACTAG) | 0.111 |
| ACTTCTACTTGGGTTCTAACCTGTTGCTA (site ACATCTACTTA) | 0.141 |
| ACTTCTACTTGGGTTCTAACCTGTTGCTA (site ACTTCTACTTA) | 0.0751 |
| ACTTGAACTTGGGTTCTAACCTGTTGCCT (site ACATGAACTAG) | 0.419 |
| ACTTGAACTTGGGTTCTAACCTGTTGCCT (site ACCTGAACTAG) | 0.0239 |
| ACTTGAACTTGGGTTCTAACCTGTTGCCT (site ACGTGAACTAG) | 0.146 |
| ACTTGAACTTGGGTTCTAACCTGTTGCCT (site ACTTGAACTAG) | 0.383 |
